# Source: patent publication US8703704B2, “Method for growing, restoring and regenerating hair” (priority 2009, dated 2014)
# “Also recorded” adds a separate entry of the source.
# What was measured:
# Cyclin D1 = assay: RT-PCR expression of Cyclin D1 in HaCat; assay type: cell-based, human; conditions: 1 μM
# Method: (§1) Human normal cornified cell stock HaCat was seeded in a 3.5 cm falcon flat bottom […] dish at the seeding rate of 2×10^4 cells/dish. In 3 days, ANP was added by 1 μM, and RNA was recovered using RNeasy plus (QUIAGEN) from the cells at the time points of 0 minute, 30 minutes, and 4 hours after start of the treatment. cDNA was synthesized using Superscript III (Invitrogen) from 0.2 μg of RNA, and the synthesized cDNA was used as a template for PCR. Using GAPDH as an internal control, the sample was subjected to PCR and then agarose electrophoresis, then stained by Cyber Safe (Invitrogen), the electrophoresis image was photographed on a UV transilluminator with a digital camera (Olympus C5060WZ), and thickness of each band was measured with the Image J (for densitometer analysis). […] Expression of BMP-2 increased by 1.5 times as compared to samples not treated in 4 hours after treatment with ANP.
# [1] = tested on: Human normal cornified cell stock HaCat; assay: Wound (scratch) test on confluent HaCat; assay type: cell-based
# Method: Human normal cornified cell stock HaCat was seeded in a falcon flat bottom 6-well dish at the seeding rate of 2×10^5 cells/dish. In 3 days, the cells in the confluent state were injured with a pipetteman chip, and the cells were washed with PBS twice, and then ANP was added so that the content was 1 μM (in OptiMEM serum free). In 24 hours, behaviors of the cells were observed (FIG. 4).
# [2] = tested on: skin of hands (cracked and rough); assay: ANP applied on hands with cracked and rough skin; assay type: in vivo, human; conditions: 0.5 to 5 μg twice a day on backs and palms of both hands
# Method: The ANP according to the present invention was applied on both the backs and palms of both hands of a ceramic artist who touched water and mud every day at a dose of 0.5 to 5 μg twice a day.
# [3] = tested on: wounds caused by the surgical operation (laser removal of lentigo); assay: ANP applied to facial wounds caused by laser surgery (left half treated, right half as comparison); assay type: in vivo, human
# Method: In a patient who received operation for removing lentigo on the entire facial surface by the laser method, ANP was administered at a dose of 0.1 to 5 μg (with an isotonic aqueous solution at a dose of 0.01 ml to 0.5 ml) twice a day to wounds caused by the surgical operation or areas around the wounds on the left half of the patient's face, and the result was compared to wounds on the right side half of the patient's face. […] Furthermore, tension of skin was observed more clearly in the left side facial area as a whole as compared to that in the right side, and smoothness of the facial skin in the left side was improved.
# [4] = tested on: head hairs of patients of thin hairs; assay: ANP applied on head skin of patients of thin hairs; assay type: in vivo, human
# Method: ANP was applied by 0.5 to 5 μg to two patients of thin hairs […], after the hairs were cleaned, twice a day (together with 0.5 ml of an isotonic aqueous solution) directly on the patients' head skin. States of pores and hairs and total state of head hairs after administration of ANP were observed and compared to those before start of administration of ANP. Observation of the states was also performed in 40 days and in 60 days after start of ANP administration for assessment. […] In 2 to 3 weeks after start of administration of ANP, it was observed that elasticity and solidity increased in total hairs on the patients' heads. In one month after start of ANP administration, the sites on each patient's head where the head skin had been visible became less visible. The retarded front line of head hairs again moved frontward, and new hairs grew up to the length of 5 to 7 mm. Furthermore, a second short hair was discovered at the side of a long grown hair. […] Black spiral hairs were observed under the pore portions. Just after the spiral hairs came out from under the head skin, the hairs kept the spiral state, but when the hairs become straight, the length was in the range from 3 to 4 mm.
# [5] = tested on: cardiac muscle of a patient suffering from the dilated cardiomyopathy; assay: Intermittent intravenous ANP in a patient with dilated cardiomyopathy; assay type: in vivo, human
# Method: A small quantity of ANP was administered intermittently, namely once for a week by 1 mg over 4 hours by means of intravenous injection to a patient diagnosed as suffering from the dilated cardiomyopathy who was […]. The contraction percentage was 19% before start of administration of ANP, but was improved up to 40% in 6 months, and also the systemic arterial capacity, which was NYHA IV before start of the treatment, was improved up to NYHA II. […] By continuing administration of ANP once a week for two years, the […] was improved up to NYHA I, and although the patient's prognosis was regarded as 6 months by the conventional therapy, it is now determined that the patient will be able to enjoy the ordinary domestic life for 10 years or more. The patient's cardiac muscle thickness and contractile activity are at present quite good.
# [6] = tested on: Human normal cornified cell stock HaCat; assay: Colony formation of HaCat in drops; assay type: cell-based; conditions: 1 μM ANP
# Method: In the case of 10 μl drop, formation of any colony was not observed.
# KRT15 = assay: RT-PCR expression of KRT15 in HaCat; assay type: cell-based, human; conditions: 1 μM; 30 minutes after start of treatment; transitional
# Method: as §1
smiles,measurement,setting,value
"CC[C@H](C)[C@@H]1NC(=O)[C@H](CCCNC(=N)N)NC(=O)[C@H](CC(=O)O)NC(=O)[C@H](CCSC)NC(=O)[C@H](CCCNC(=N)N)NC(=O)CNC(=O)CNC(=O)[C@H](Cc2ccccc2)NC(=O)[C@@H](NC(=O)[C@H](CO)NC(=O)[C@H](CO)NC(=O)[C@H](CCCNC(=N)N)NC(=O)[C@H](CCCNC(=N)N)NC(=O)[C@H](CC(C)C)NC(=O)[C@@H](N)CO)CSSC[C@@H](C(=O)N[C@@H](CC(N)=O)C(=O)N[C@@H](CO)C(=O)N[C@@H](Cc2ccccc2)C(=O)N[C@@H](CCCNC(=N)N)C(=O)N[C@@H](Cc2ccc(O)cc2)C(=O)O)NC(=O)CNC(=O)[C@H](CC(C)C)NC(=O)CNC(=O)[C@H](CO)NC(=O)[C@H](CCC(N)=O)NC(=O)[C@H](C)NC(=O)CNC1=O [ANP, atrial natriuretic peptide]",expression rate of Cyclin D1 relative to the original level,Cyclin D1,⅓ and around ⅓
same,cell motility,[1]; 1 μM,rose
same,behaviour of cells at wound edges,"[1]; 1 μM in OptiMEM serum free, 24 hours",many rounding-like sites are observed; also recorded: rounding-like state was observed at many sites
same,cracked and rough skin symptoms,[2],remarkably improved
same,closure of wounds,"[3]; 0.1 to 5 μg twice a day, one week after start, versus untreated right side",most of the wounds were closed
same,restoration of wounds,[3]; ANP area compared to control area / no ANP,advances far quickly; also recorded: more quickly restored
same,smoothness of the facial skin,[3]; left (treated) side,improved
same,surgical traces,[3]; sites where ANP was administered,less remarkable
same,reformation of subcutaneous tissue,[3]; treated left half versus untreated right half of face,clearly earlier
same,growth of downy hairs on the frontal region,"[4]; 0.5 to 5 μg twice a day, one week after start",growth of hairs like downy hairs was observed
same,elasticity and solidity of total hairs,[4]; 2 to 3 weeks after start,increased
same,thickness of head hairs,[4]; 40 days after start,thickness increased
same,visibility of head skin,[4]; 60 days after start,hardly visible
same,contraction percentage,"[5]; 1 mg i.v. over 4 hours once a week, in 6 months, 19% before start",40%
same,NYHA class after continued administration,[5]; ANP once a week for two years,NYHA I
same,cardiac muscle thickness (ultrasonic diagnosis),[5]; during ANP treatment,increased
same,NYHA functional class,"[5]; in 6 months, NYHA IV before start of the treatment",NYHA II
same,time the patient will be able to enjoy ordinary domestic life (prognosis),[5]; prognosis was 6 months by the conventional therapy,≥ 10 years
same,capability of forming colonies,[6],form colonies; also recorded: colonies formed
same,increase of expression rate of KRT15,KRT15,about 20%
